Data: the CheMixHub viscosity set

Assay: xn = mol fraction of the nth substance listed

CCCCC(CC)COP(=O)(O)OCC(CC)CCCC (configuration not stated) + Cc1ccccc1C
viscosity [mPa·s], 101 kPa
Settings	x1 = 0.1	x1 = 0.2	x1 = 0.398	x1 = 0.606	x1 = 0.796	x1 = 0.9
303.15 K	1.039	2.217	8.93	29.43	77.84	124.5
308.15 K	0.981	2.056	7.798	24.38	61.89	96.93
313.15 K	0.915	1.88	6.923	20.18	48.95	76.04
318.15 K	0.867	1.743	5.965	18.03	41.55	63.57

Cc1cccc(O)c1 + Cc1ccccc1N
298.15 K, 101 kPa
Settings	viscosity [mPa·s]
x1 = 0.33	8.06
x1 = 0.496	11.21
x1 = 0.662	13.84
x1 = 0.751	13.76

CCC1(C)OC1C#N (configuration not stated) + ClC(Cl)(Cl)Cl
viscosity [mPa·s], 101 kPa
Settings	293.15 K	298.15 K	303.15 K	313.15 K	323.15 K
x1 = 0.0076	0.977	0.906	0.875	0.75	0.646
x1 = 0.008	0.983	0.938	0.873	0.776	0.698

CCCCOCCOCCOCCO + ClC(Cl)=C(Cl)Cl
298.15 K, 101.33 kPa
Settings	viscosity [mPa·s]
x2 = 0.0067	0.864
x2 = 0.0173	0.895
x2 = 0.0345	0.95
x2 = 0.0476	0.995
x2 = 0.06	1.04
x2 = 0.0815	1.124
x2 = 0.1063	1.227
x2 = 0.1471	1.408
x2 = 0.184	1.601
x2 = 0.2264	1.828
x2 = 0.2617	2.046
x2 = 0.3067	2.351
x2 = 0.348	2.66
x2 = 0.377	2.889
x2 = 0.415	3.192
x2 = 0.4588	3.55
x2 = 0.491	3.816
x2 = 0.5348	4.198
x2 = 0.576	4.576
x2 = 0.6201	4.978
x2 = 0.6577	5.357
x2 = 0.7089	5.881
x2 = 0.7558	6.354
x2 = 0.8037	6.872
x2 = 0.8566	7.45
x2 = 0.9013	7.964
x2 = 0.9283	8.26
x2 = 0.9521	8.528
x2 = 0.9738	8.793
